According to BindingDB's records for PubMed 2746503 (Universit&Eacute, 1989):
Several values for one entry are separate records, joined by “and”; a condition that tells them apart may be missing. Equal values may be shown once.

How the values were obtained:
[1] = biological target: T1, Muscarinic acetylcholine receptor M2 (Sus scrofa, UniProt P06199)
T1 sequence (P06199 whole entry): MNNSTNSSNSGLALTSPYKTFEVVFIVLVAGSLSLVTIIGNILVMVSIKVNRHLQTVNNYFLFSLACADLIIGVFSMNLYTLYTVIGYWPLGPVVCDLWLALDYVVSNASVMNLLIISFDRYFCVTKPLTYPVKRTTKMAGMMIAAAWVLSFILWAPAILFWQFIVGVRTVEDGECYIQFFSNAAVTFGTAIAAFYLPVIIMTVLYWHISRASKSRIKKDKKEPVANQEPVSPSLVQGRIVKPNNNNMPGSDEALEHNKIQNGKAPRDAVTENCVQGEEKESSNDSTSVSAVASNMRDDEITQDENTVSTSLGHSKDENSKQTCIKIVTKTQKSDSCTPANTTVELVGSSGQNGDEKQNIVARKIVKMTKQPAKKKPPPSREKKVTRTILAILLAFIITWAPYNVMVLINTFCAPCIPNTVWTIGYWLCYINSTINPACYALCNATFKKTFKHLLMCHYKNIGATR

[2] = biological target: T2, Muscarinic acetylcholine receptor M2 (Rattus norvegicus, UniProt P10980)
T2 sequence (P10980 whole entry): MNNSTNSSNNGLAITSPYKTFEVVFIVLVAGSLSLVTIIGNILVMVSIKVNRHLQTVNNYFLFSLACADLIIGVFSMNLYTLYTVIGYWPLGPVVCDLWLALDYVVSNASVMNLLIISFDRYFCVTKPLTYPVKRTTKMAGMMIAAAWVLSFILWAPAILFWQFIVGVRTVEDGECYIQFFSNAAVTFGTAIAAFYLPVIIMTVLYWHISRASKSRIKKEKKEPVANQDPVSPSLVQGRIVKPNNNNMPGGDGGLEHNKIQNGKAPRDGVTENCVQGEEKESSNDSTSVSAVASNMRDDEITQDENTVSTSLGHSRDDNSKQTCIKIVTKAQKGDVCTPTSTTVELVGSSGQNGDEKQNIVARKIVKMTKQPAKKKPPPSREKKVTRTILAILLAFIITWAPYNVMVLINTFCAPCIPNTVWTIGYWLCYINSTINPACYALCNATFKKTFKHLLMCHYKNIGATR

[3] = biological target: T3, Muscarinic acetylcholine receptor M2 (Homo sapiens, UniProt P08172)
T3 sequence (P08172 whole entry): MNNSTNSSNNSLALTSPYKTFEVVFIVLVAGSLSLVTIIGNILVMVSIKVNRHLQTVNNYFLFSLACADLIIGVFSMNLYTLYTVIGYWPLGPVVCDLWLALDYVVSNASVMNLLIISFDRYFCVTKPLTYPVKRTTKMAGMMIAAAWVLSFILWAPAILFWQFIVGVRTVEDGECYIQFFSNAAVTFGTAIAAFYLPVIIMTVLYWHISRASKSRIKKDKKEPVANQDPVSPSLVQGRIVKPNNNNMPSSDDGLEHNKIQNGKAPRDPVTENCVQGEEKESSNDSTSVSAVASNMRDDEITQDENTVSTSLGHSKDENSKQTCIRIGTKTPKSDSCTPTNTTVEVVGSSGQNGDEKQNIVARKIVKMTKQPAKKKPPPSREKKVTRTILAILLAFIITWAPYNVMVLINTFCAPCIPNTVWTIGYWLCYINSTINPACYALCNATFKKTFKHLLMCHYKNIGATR

Compound	Ki [1]	Ki [2]	Ki [3]
CN1CCN(CC(=O)N2c3ccccc3C(=O)Nc3cccnc32)CC1 [11-[(4-methylpiperazin-1-yl)acetyl]-5,11-dihydro-6H-pyrido[2,3-b][1,4]benzodiazepin-6-one]	0.0807 µM and 0.276 µM		
CCN(CC)CC1CCCCN1CC(=O)N1c2ccccc2C(=O)Nc2cccnc21 (centres undefined) [(AF-DX 116) 11-[2-(2-Diethylaminomethyl-piperidin-1-yl)-acetyl]-5,11-dihydro-benzo[e]pyrido[3,2-b][1,4]diazepin-6-one]	0.0288 µM and 0.0218 µM	0.0311 µM and 0.0269 µM	0.0996 µM and 0.0174 µM
